Test results published in article PMC5218480 (PLoS ONE, 2017).

System: MV-4-11 cells
Test: Gene expression microarray analysis (Affymetrix PrimeView) and GSEA
Assay type: cell-based, human
Conditions: gene FGFR1OP, FGFR1 oncogene partner; Azacitidine 1 mM; LIST F

Compound: Nc1ncn([C@@H]2O[C@H](CO)[C@@H](O)[C@H]2O)c(=O)n1 [azacitidine]
- RFU, FGFR1OP (ProbeSet 11751329_s_at): 410.33 RFU
